Data on three compounds can be found in ChEMBL document CHEMBL5108035, “Acriflavine, an Acridine Derivative for Biomedical Application: Current State of the Art” (J Med Chem, 2022).

A short description of data set [1]: Anticancer activity against patient-derived human Colorectal tumor cells assessed as tumor growth inhibition incubated for 72 hrs by FMCA assay. It is filed as functional, cell-based. To be noted: Colorectal cancer cell.
The subject of the next data set is Ovarian cancer cell line. The data set is described as follows: Anticancer activity against patient-derived human Ovarian tumor cells assessed as tumor growth inhibition incubated for 72 hrs by FMCA assay. The class given is functional, cell-based.
Data set [2] can be described thus: Anticancer activity against patient-derived human CLL tumor cells assessed as tumor growth inhibition incubated for 72 hrs by FMCA assay. It is filed as functional, cell-based. The settings on record: CLL cell.
A short description of data set [3]: Cytotoxicity against patient-derived human mononuclear cells assessed as cell growth inhibition incubated for 72 hrs by FMCA assay. It is filed as toxicity, cell-based, Mononuclear cell line.
A further data set has as its system Mahlavu. Nature of the data set: Cytotoxicity against human Mahlavu cells assessed as inhibition of cell viability incubated upto 72 hrs by MTT assay. The class given is functional, cell-based. For orientation: Tetrazolium assays rely on reduction of a dye to a coloured formazan, in cell work by metabolically active cells.

As usually defined, the IC50 is the concentration that inhibits the measured activity by half. Take `O=c1[nH]cc(F)c(=O)[nH]1` [FLUOROURACIL]: the IC50 in data set [1] turned out to be 755 µM; with Ovarian cancer cell line, 563 µM; in data set [2], 658 µM. For the same compound, the IC50 at 72 h in data set [3] turned out to be 430 µM.

As to `CNC(=O)c1cc(Oc2ccc(NC(=O)Nc3ccc(Cl)c(C(F)(F)F)c3)cc2)ccn1` [SORAFENIB], the IC50 with Mahlavu turned out to be 13.4 µM.

Turning to `CCc1c2c(nc3ccc(OC(=O)N4CCC(N5CCCCC5)CC4)cc13)-c1cc3c(c(=O)n1C2)COC(=O)[C@]3(O)CC` [IRINOTECAN], the IC50 is 89.6 µM in data set [1] and 75.3 µM with Ovarian cancer cell line.
